Test results reported in patent US20100041089A1, “IMPROVED METHOD FOR DETECTING CHEMICAL […]” (priority 2006, published 2010).

System: yeast genes (expressed mRNA)
Test: DNA chip measurement of expressed mRNA of yeast genes after culture with a toxic chemical substance
Format: cell-based, Saccharomyces cerevisiae S288C
Conditions: for The level of expressed mRNA in the presence of chemical substance/The level of expressed mRNA in the absence of chemical substance: cultured two hours with substance; for level of expressed mRNA in the presence of chemical substance / level in the absence of chemical substance: cultured two hours with the chemical substance
Outline: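 Two-hour exposure of growing S. cerevisiae S288C (YPD, 25° C) to a sublethal toxicant preceded RNA isolation. Fluorescent cDNA was hybridized to a whole-genome array; a treated-to-untreated signal ratio of two or more was taken as significant.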

## Na2As [(1)]
Yeast gene YJL151C
  The level of expressed mRNA in the presence of chemical substance/The level of expressed mRNA in the absence of chemical substance: 1.0
Yeast gene YJL152W
  The level of expressed mRNA in the presence of chemical substance/The level of expressed mRNA in the absence of chemical substance: 0.9
Yeast gene YJL161W
  The level of expressed mRNA in the presence of chemical substance/The level of expressed mRNA in the absence of chemical substance: 1.7
Yeast gene YJL171C
  The level of expressed mRNA in the presence of chemical substance/The level of expressed mRNA in the absence of chemical substance: 2.3
Yeast gene YJR008W
  The level of expressed mRNA in the presence of chemical substance/The level of expressed mRNA in the absence of chemical substance: 1.6
Yeast gene YJR030C
  level of expressed mRNA in the presence of chemical substance / level in the absence of chemical substance: 0.7
Yeast gene YJR054W
  The level of expressed mRNA in the presence of chemical substance/The level of expressed mRNA in the absence of chemical substance: 0.8
Yeast gene YKL051W
  level of expressed mRNA in the presence of chemical substance / level in the absence of chemical substance: 1.0
Yeast gene YKL071W
  The level of expressed mRNA in the presence of chemical substance/The level of expressed mRNA in the absence of chemical substance: 8.3
Yeast gene YKL086W
  The level of expressed mRNA in the presence of chemical substance/The level of expressed mRNA in the absence of chemical substance: 1.0
Yeast gene YKL097C
  level of expressed mRNA in the presence of chemical substance / level in the absence of chemical substance: 0.9
Yeast gene YKL100C
  level of expressed mRNA in the presence of chemical substance / level in the absence of chemical substance: 0.7
Yeast gene YKL151C
  The level of expressed mRNA in the presence of chemical substance/The level of expressed mRNA in the absence of chemical substance: 1.2
Yeast gene YKL153W
  The level of expressed mRNA in the presence of chemical substance/The level of expressed mRNA in the absence of chemical substance: 1.1
Yeast gene YKL195W
  The level of expressed mRNA in the presence of chemical substance/The level of expressed mRNA in the absence of chemical substance: 0.8
Yeast gene YKR040C
  level of expressed mRNA in the presence of chemical substance / level in the absence of chemical substance: 1.2
Yeast gene YKR091W
  The level of expressed mRNA in the presence of chemical substance/The level of expressed mRNA in the absence of chemical substance: 1.5
Yeast gene YLR054C
  The level of expressed mRNA in the presence of chemical substance/The level of expressed mRNA in the absence of chemical substance: 2.0
Yeast gene YLR149C
  The level of expressed mRNA in the presence of chemical substance/The level of expressed mRNA in the absence of chemical substance: 1.4
Yeast gene YLR152C
  The level of expressed mRNA in the presence of chemical substance/The level of expressed mRNA in the absence of chemical substance: 0.7
Yeast gene YLR194C
  The level of expressed mRNA in the presence of chemical substance/The level of expressed mRNA in the absence of chemical substance: 2.1
Yeast gene YLR226W
  level of expressed mRNA in the presence of chemical substance / level in the absence of chemical substance: 1.0
Yeast gene YLR324W
  The level of expressed mRNA in the presence of chemical substance/The level of expressed mRNA in the absence of chemical substance: 0.7
Yeast gene YLR338W
  level of expressed mRNA in the presence of chemical substance / level in the absence of chemical substance: 1.1
Yeast gene YLR350W
  The level of expressed mRNA in the presence of chemical substance/The level of expressed mRNA in the absence of chemical substance: 1.2
Yeast gene YLR387C
  The level of expressed mRNA in the presence of chemical substance/The level of expressed mRNA in the absence of chemical substance: 0.9
Yeast gene YLR392C
  level of expressed mRNA in the presence of chemical substance / level in the absence of chemical substance: 1.1
Yeast gene YLR415C
  level of expressed mRNA in the presence of chemical substance / level in the absence of chemical substance: 1.1
Yeast gene YLR427W
  level of expressed mRNA in the presence of chemical substance / level in the absence of chemical substance: 0.6
Yeast gene YLR460C
  The level of expressed mRNA in the presence of chemical substance/The level of expressed mRNA in the absence of chemical substance: 2.1
Yeast gene YML013W
  level of expressed mRNA in the presence of chemical substance / level in the absence of chemical substance: 0.8
Yeast gene YML029W
  level of expressed mRNA in the presence of chemical substance / level in the absence of chemical substance: 0.6
Yeast gene YML041C
  level of expressed mRNA in the presence of chemical substance / level in the absence of chemical substance: 1.2
Yeast gene YML079W
  level of expressed mRNA in the presence of chemical substance / level in the absence of chemical substance: 1.0
Yeast gene YML117W
  The level of expressed mRNA in the presence of chemical substance/The level of expressed mRNA in the absence of chemical substance: 0.9
Yeast gene YMR009W
  The level of expressed mRNA in the presence of chemical substance/The level of expressed mRNA in the absence of chemical substance: 2.3
Yeast gene YMR067C
  The level of expressed mRNA in the presence of chemical substance/The level of expressed mRNA in the absence of chemical substance: 0.9
Yeast gene YMR068W
  level of expressed mRNA in the presence of chemical substance / level in the absence of chemical substance: 0.9
Yeast gene YMR071C
  level of expressed mRNA in the presence of chemical substance / level in the absence of chemical substance: 1.0
Yeast gene YMR090W
  The level of expressed mRNA in the presence of chemical substance/The level of expressed mRNA in the absence of chemical substance: 6.9
Yeast gene YMR095C
  The level of expressed mRNA in the presence of chemical substance/The level of expressed mRNA in the absence of chemical substance: 1.1
Yeast gene YMR097C
  The level of expressed mRNA in the presence of chemical substance/The level of expressed mRNA in the absence of chemical substance: 1.5
Yeast gene YMR102C
  The level of expressed mRNA in the presence of chemical substance/The level of expressed mRNA in the absence of chemical substance: 1.0
Yeast gene YMR107W
  The level of expressed mRNA in the presence of chemical substance/The level of expressed mRNA in the absence of chemical substance: 5.0
Yeast gene YMR160W
  level of expressed mRNA in the presence of chemical substance / level in the absence of chemical substance: 0.8
Yeast gene YMR180C
  The level of expressed mRNA in the presence of chemical substance/The level of expressed mRNA in the absence of chemical substance: 1.2
Yeast gene YMR184W
  The level of expressed mRNA in the presence of chemical substance/The level of expressed mRNA in the absence of chemical substance: 1.3
Yeast gene YMR191W
  The level of expressed mRNA in the presence of chemical substance/The level of expressed mRNA in the absence of chemical substance: 1.3
Yeast gene YMR295C
  The level of expressed mRNA in the presence of chemical substance/The level of expressed mRNA in the absence of chemical substance: 1.7
Yeast gene YMR316W
  The level of expressed mRNA in the presence of chemical substance/The level of expressed mRNA in the absence of chemical substance: 3.2
Yeast gene YNL026W
  level of expressed mRNA in the presence of chemical substance / level in the absence of chemical substance: 0.7
Yeast gene YNL044W
  The level of expressed mRNA in the presence of chemical substance/The level of expressed mRNA in the absence of chemical substance: 1.3
